Several values for one entry are separate records, joined by “and”; a condition that tells them apart may be missing. Equal entries are not always repeated. Marks after values point to notes of the source that are not given here.
Test system: green peach aphid, Myzus persicae (GPA)
Experiment: Foliar spray test of Compound A, nonionic surfactant and AMS combinations on green peach aphid on cabbage
Type: in vivo
Settings: for Aphid count/plant / % Control (negative values to 0) / Calculated Colby Value: Rep 1-4; for T-Test Results (synergy mark): measured vs Colby, two-sided T-test
Procedure: Materials and Methods. Solutions of nonionic surfactant (Atlox 4991 0.125% and 0.25% V/V; 1250 and 2500 ppm respectively) and ammonium sulfate (“AMS” 10,200 and 20,400 ppm) were prepared in 500 mL of water. Water used to prepare all solutions was obtained from a Milli Q water purification system. Combination mixtures were created by adding surfactant to aliquots of AMS and water solution to create all two-way combinations of surfactant and AMS. A 500 ppm stock solution of Compound A in water was prepared by adding […] of Compound A to 40 mL of water. 62.4 μL of this 500 ppm solution was added to 20 mL of each AMS, surfactant, or surfactant and AMS solution to create 1.56 ppm Compound A high rate solutions. These high rate solutions of Compound A and surfactant, Compound A and AMS, or Compound A, AMS, and surfactant, were serially diluted in two-fold increments with the appropriate surfactant, AMS, or AMS and surfactant combination solutions, to create a dilution series from 1.56 to 0.19 ppm. A dilution series of Compound A in water with no surfactant or AMS was also prepared. All solutions of surfactant, AMS, or surfactant and AMS, were tested without Compound A. Two-to-three-leaf stage cabbage plants were infested on day 1 with green peach aphid, Myzus persicae (GPA), by transferring aphid infested foliage to each plant. A uniform number of aphids were transferred based on visual inspection of the infested foliage. Plants were sprayed on all surfaces to wet using a hand held aspirator type sprayer on day 2. Four replicates of each treatment combination were sprayed and all stages of live aphids on each plant were counted on day 4. Data were converted to percent control based on the number of aphids in the unsprayed check treatment. Counts of aphids on unsprayed check plants were used to calculate control for surfactant and AMS solutions. Additionally, the average aphid count on the unsprayed check treatment was used to calculate percent control values for plants sprayed with only Compound A. Aphid counts from plants treated with combinations of Compound A and AMS, surfactant, or AMS and surfactant, were converted to percent control by using the average aphid count from the unsprayed check treatment. Negative percent control values were changed to zero percent control values before assessing treatment combinations for synergy. […] Measured efficacy (percent Control) data were compared to calculated Colby values (Colby, S. R. 1967. Calculating Synergistic and Antagonistic Responses of Herbicide Combinations. Weeds 15:20-22) using a two-sided T-test (Minitab).

[1] = A 0.19 ppm + NS 1250 ppm + AMS 10,200 ppm
[2] = A 0.19 ppm + NS 1250 ppm + AMS 20,400 ppm
[3] = A 0.19 ppm + NS 2500 ppm + AMS 10,200 ppm
[4] = A 0.19 ppm + NS 2500 ppm + AMS 20,400 ppm
[5] = treatment #12: A 0.19 ppm + AMS 20,400 ppm
[6] = treatment #14: A 0.19 ppm + NS 1250 ppm + AMS 20,400 ppm
[7] = treatment #15: A 0.19 ppm + NS 2500 ppm + AMS 20,400 ppm
[8] = treatment #16: A 0.19 ppm + NS 1250 ppm + AMS 10,200 ppm

Which results are given for `N.N.O=S(=O)(O)O` [AMS, ammonium sulfate]?
Aphid count/plant (treatment #4: AMS 20,400 ppm alone): 35 and 36 and 38 and 31; % Control (negative values to 0) (treatment #5: AMS 10,200 ppm alone): 0.0%

What does the source list for `CC(c1ccc(C(F)(F)F)nc1)S(C)(=O)=NC#N` (stereo not drawn) [Compound A]?
% Control Colby Calculated, Mean (A 0.19 ppm + AMS 10,200 ppm): 43%; % Control Measured, Mean (A 0.19 ppm + AMS 10,200 ppm): 32%; % Control Colby Calculated, Mean (A 0.19 ppm + AMS 20,400 ppm): 55.58%; % Control Measured, Mean (A 0.19 ppm + AMS 20,400 ppm): 38.3%; % Control Colby Calculated, Mean (A 0.19 ppm + NS 1250 ppm): 58.28%; % Control Measured, Mean (A 0.19 ppm + NS 1250 ppm): 76.4%; % Control Colby Calculated, Mean [1]: 58.28%; % Control Measured, Mean [1]: 93.28%; T-Test Results (synergy mark) [1]: T = 6.60 P = 0.0027***; % Control Colby Calculated, Mean [2]: 60.1%; % Control Measured, Mean [2]: 91.1%; T-Test Results (synergy mark) [2]: T = 3.26 P = 0.022***; % Control Colby Calculated, Mean (A 0.19 ppm + NS 2500 ppm): 57%; % Control Measured, Mean (A 0.19 ppm + NS 2500 ppm): 63.7%; % Control Colby Calculated, Mean [3]: 57%; % Control Measured, Mean [3]: 80%; % Control Colby Calculated, Mean [4]: 63.3%; % Control Measured, Mean [4]: 96.33%; T-Test Results (synergy mark) [4]: T = 3.68 P = 0.035***; synergy (A 0.19 ppm combined with AMS and surfactant, three of 4 possible mixtures statistically supported): significant synergy; synergy (A 0.19 ppm combined with surfactant or AMS (two-way mixtures), 0.05% level): no instances where synergy could be supported; efficacy (A at concentrations of 1.56, 0.78 and 0.39, not combined with surfactant or AMS): great enough that identifying synergy was not practical; % Control (negative values to 0) (treatment #10: A 0.19 ppm + NS 1250 ppm): 85.4% and 98.1% and 64.3% and 57.9%; Calculated Colby Value (treatment #10: A 0.19 ppm + NS 1250 ppm, predicted % control): 53.6% and 63.2% and 60.2% and 56.1%; Aphid count/plant [5]: 19 and 24 and 20; Calculated Colby Value [5]: 56.5% and 64.4% and 43.9% and 57.5%; Aphid count/plant (treatment #13: A 0.19 ppm + AMS 10,200 ppm): 23 and 30 and 28 and 17; % Control (negative values to 0) [6]: 97.9% and 98.1% and 100.0% and 68.4%; Calculated Colby Value [6]: 53.6% and 63.2% and 48.7% and 74.8%; % Control (negative values to 0) [7]: 95.8% and 100.0% and 89.5%; Calculated Colby Value [7]: 60.2% and 63.2% and 43.9% and 85.8%; % Control (negative values to 0) [8]: 97.9% and 96.3% and 100.0% and 78.9%; Calculated Colby Value [8]: 53.6% and 63.2% and 60.2% and 56.1%; % Control (negative values to 0) (treatment #17: A 0.19 ppm + NS 2500 ppm + AMS 10,200 ppm): 72.9% and 98.1% and 85.7% and 63.2%

Reference: patent US8232301B2, “Pesticidal compositions” (Dow AgroScience, LLC., priority 2008, dated 2012)
